# From PubChem BioAssay AID1259407 (Chemical Carcinogenesis Research Information System (CCRIS), 2018)
# The source made the active and inactive calls. The rule behind the calls is not given here.
# Test system: CCRIS mutagenicity, Ames/micronucleus/aberration tests
# Assay: CCRIS mutagenicity studies
# [1] = Test System: AMES SALMONELLA TYPHIMURIUM, Strain/Indicator: TA98, Metabolic Activation: NONE, Method: STANDARD PLATE
# [2] = Test System: AMES SALMONELLA TYPHIMURIUM, Strain/Indicator: TA98, Metabolic Activation: RAT, LIVER, S-9, AROCLOR 1254, Method: STANDARD PLATE
# [3] = Test System: AMES SALMONELLA TYPHIMURIUM, Strain/Indicator: TA100, Metabolic Activation: NONE, Method: STANDARD PLATE
# [4] = Test System: AMES SALMONELLA TYPHIMURIUM, Strain/Indicator: TA100, Metabolic Activation: RAT, LIVER, S-9, AROCLOR 1254, Method: STANDARD PLATE
# [5] = Test System: AMES SALMONELLA TYPHIMURIUM, Strain/Indicator: TA1535, Metabolic Activation: NONE, Method: STANDARD PLATE
# [6] = Test System: AMES SALMONELLA TYPHIMURIUM, Strain/Indicator: TA1535, Metabolic Activation: RAT, LIVER, S-9, AROCLOR 1254, Method: STANDARD PLATE
# [7] = Test System: AMES SALMONELLA TYPHIMURIUM, Strain/Indicator: TA1537, Metabolic Activation: NONE, Method: STANDARD PLATE
# [8] = Test System: AMES SALMONELLA TYPHIMURIUM, Strain/Indicator: TA1537, Metabolic Activation: RAT, LIVER, S-9, AROCLOR 1254, Method: STANDARD PLATE
smiles,measurement,setting,value
CC(=O)CC(C)(C)O,mutagenic call,"Test System: AMES SALMONELLA TYPHIMURIUM, Strain/Indicator: TA98, Metabolic Activation: HAMSTER, LIVER, S-9, AROCLOR 1254, Method: STANDARD PLATE",inactive; negative
same,mutagenic call,[1],inactive; negative
same,mutagenic call,[2],inactive; negative
same,mutagenic call,"Test System: AMES SALMONELLA TYPHIMURIUM, Strain/Indicator: TA100, Metabolic Activation: HAMSTER, LIVER, S-9, AROCLOR 1254, Method: STANDARD PLATE",inactive; negative
same,mutagenic call,[3],inactive; negative
same,mutagenic call,[4],inactive; negative
same,mutagenic call,"Test System: AMES SALMONELLA TYPHIMURIUM, Strain/Indicator: TA1535, Metabolic Activation: HAMSTER, LIVER, S-9, AROCLOR 1254, Method: STANDARD PLATE",inactive; negative
same,mutagenic call,[5],inactive; negative
same,mutagenic call,[6],inactive; negative
same,mutagenic call,"Test System: AMES SALMONELLA TYPHIMURIUM, Strain/Indicator: TA1537, Metabolic Activation: HAMSTER, LIVER, S-9, AROCLOR 1254, Method: STANDARD PLATE",inactive; negative
same,mutagenic call,[7],inactive; negative
same,mutagenic call,[8],inactive; negative
same,mutagenic call,"Test System: AMES SALMONELLA TYPHIMURIUM, Strain/Indicator: TA1538, Metabolic Activation: HAMSTER, LIVER, S-9, AROCLOR 1254, Method: STANDARD PLATE",inactive; negative
same,mutagenic call,"Test System: AMES SALMONELLA TYPHIMURIUM, Strain/Indicator: TA1538, Metabolic Activation: NONE, Method: STANDARD PLATE",inactive; negative
same,mutagenic call,"Test System: AMES SALMONELLA TYPHIMURIUM, Strain/Indicator: TA1538, Metabolic Activation: RAT, LIVER, S-9, AROCLOR 1254, Method: STANDARD PLATE",inactive; negative
same,mutagenic call,"Test System: Mouse lymphoma, Strain/Indicator: L5178Y (tk+/tk-), Metabolic Activation: None, Method: Suspension/plate",inactive; negative
same,mutagenic call,"Test System: Mouse lymphoma, Strain/Indicator: L5178Y (tk+/tk-), Metabolic Activation: Rat, Liver, S-9, Aroclor 1254, Method: Suspension/plate",inactive; negative
CNCCS(=O)(=O)O,mutagenic call,"Test System: AMES SALMONELLA TYPHIMURIUM, Strain/Indicator: TA98, Metabolic Activation: HAMSTER, LIVER, S-9, AROCLOR 1254 (10%), Method: PREINCUBATION",inactive; negative
same,mutagenic call,"Test System: AMES SALMONELLA TYPHIMURIUM, Strain/Indicator: TA98, Metabolic Activation: NONE, Method: PREINCUBATION",inactive; negative
same,mutagenic call,"Test System: AMES SALMONELLA TYPHIMURIUM, Strain/Indicator: TA98, Metabolic Activation: RAT, LIVER, S-9, AROCLOR 1254 (10%), Method: PREINCUBATION",inactive; negative
same,mutagenic call,"Test System: AMES SALMONELLA TYPHIMURIUM, Strain/Indicator: TA100, Metabolic Activation: HAMSTER, LIVER, S-9, AROCLOR 1254 (10%), Method: PREINCUBATION",inactive; negative
same,mutagenic call,"Test System: AMES SALMONELLA TYPHIMURIUM, Strain/Indicator: TA100, Metabolic Activation: NONE, Method: PREINCUBATION",inactive; negative
same,mutagenic call,"Test System: AMES SALMONELLA TYPHIMURIUM, Strain/Indicator: TA100, Metabolic Activation: RAT, LIVER, S-9, AROCLOR 1254 (10%), Method: PREINCUBATION",inactive; negative
same,mutagenic call,"Test System: AMES SALMONELLA TYPHIMURIUM, Strain/Indicator: TA1535, Metabolic Activation: HAMSTER, LIVER, S-9, AROCLOR 1254 (10%), Method: PREINCUBATION",inactive; negative
same,mutagenic call,"Test System: AMES SALMONELLA TYPHIMURIUM, Strain/Indicator: TA1535, Metabolic Activation: NONE, Method: PREINCUBATION",inactive; negative
same,mutagenic call,"Test System: AMES SALMONELLA TYPHIMURIUM, Strain/Indicator: TA1535, Metabolic Activation: RAT, LIVER, S-9, AROCLOR 1254 (10%), Method: PREINCUBATION",inactive; negative
same,mutagenic call,"Test System: AMES SALMONELLA TYPHIMURIUM, Strain/Indicator: TA1537, Metabolic Activation: HAMSTER, LIVER, S-9, AROCLOR 1254 (10%), Method: PREINCUBATION",inactive; negative
same,mutagenic call,"Test System: AMES SALMONELLA TYPHIMURIUM, Strain/Indicator: TA1537, Metabolic Activation: NONE, Method: PREINCUBATION",inactive; negative
same,mutagenic call,"Test System: AMES SALMONELLA TYPHIMURIUM, Strain/Indicator: TA1537, Metabolic Activation: RAT, LIVER, S-9, AROCLOR 1254 (10%), Method: PREINCUBATION",inactive; negative
O=C1NC(=O)C(CCl)=C1Cl,mutagenic call,[3],active; positive
Cc1c[nH]c(=O)[nH]c1=O,mutagenic call,"Test System: CHINESE HAMSTER V-79, Strain/Indicator: V-79 (HPRT)/6-THIOGUANINE, Metabolic Activation: NONE, Method: STANDARD PLATE",inactive; negative
CCOC(=O)c1cccc2cccnc12,mutagenic call,[1],inactive; negative
same,mutagenic call,[2],inactive; negative
same,mutagenic call,[3],inactive; negative
same,mutagenic call,[4],inactive; negative
same,mutagenic call,[5],inactive; negative
same,mutagenic call,[6],inactive; negative
same,mutagenic call,[7],inactive; negative
same,mutagenic call,[8],inactive; negative
O=c1cc2ccc3cccc4ccc([nH]1)c2c34,mutagenic call,[1],active; positive
same,mutagenic call,[2],active; positive
same,mutagenic call,[3],inactive; negative
same,mutagenic call,[4],active; positive
C1=Cc2ccc3nc4ccc5ccccc5c4cc3c2CC1,mutagenic call,"Test System: AMES SALMONELLA TYPHIMURIUM, Strain/Indicator: TA98, Metabolic Activation: GUINEA PIG, LIVER, S-9, 3-METHYLCHOLANTHRENE, Method: STANDARD PLATE",active; positive
same,mutagenic call,"Test System: AMES SALMONELLA TYPHIMURIUM, Strain/Indicator: TA100, Metabolic Activation: GUINEA PIG, LIVER, S-9, 3-METHYLCHOLANTHRENE, Method: STANDARD PLATE",active; positive
